Laboratory results reported in patent publication US8791267B2, “Biaryl PDE4 inhibitors for treating inflammatory, cardiovascular and CNS disorders” (Decode Genetics EHF, priority 2007, dated 2014).
Structures can show the parent of a compound that is named as a salt.

How the values were obtained:
[1] = molecular target: PDE4 (Homo sapiens, UniProt Q08499); test: In-vitro assay for PDE4 enzymes, real-time enzyme-coupled spectrophotometric assay (Table 9); format: biochemical; details: human PDE4D; activity class, Table 9; read-out: hPDE4D
Chain of PDE4 (Q08499 whole entry): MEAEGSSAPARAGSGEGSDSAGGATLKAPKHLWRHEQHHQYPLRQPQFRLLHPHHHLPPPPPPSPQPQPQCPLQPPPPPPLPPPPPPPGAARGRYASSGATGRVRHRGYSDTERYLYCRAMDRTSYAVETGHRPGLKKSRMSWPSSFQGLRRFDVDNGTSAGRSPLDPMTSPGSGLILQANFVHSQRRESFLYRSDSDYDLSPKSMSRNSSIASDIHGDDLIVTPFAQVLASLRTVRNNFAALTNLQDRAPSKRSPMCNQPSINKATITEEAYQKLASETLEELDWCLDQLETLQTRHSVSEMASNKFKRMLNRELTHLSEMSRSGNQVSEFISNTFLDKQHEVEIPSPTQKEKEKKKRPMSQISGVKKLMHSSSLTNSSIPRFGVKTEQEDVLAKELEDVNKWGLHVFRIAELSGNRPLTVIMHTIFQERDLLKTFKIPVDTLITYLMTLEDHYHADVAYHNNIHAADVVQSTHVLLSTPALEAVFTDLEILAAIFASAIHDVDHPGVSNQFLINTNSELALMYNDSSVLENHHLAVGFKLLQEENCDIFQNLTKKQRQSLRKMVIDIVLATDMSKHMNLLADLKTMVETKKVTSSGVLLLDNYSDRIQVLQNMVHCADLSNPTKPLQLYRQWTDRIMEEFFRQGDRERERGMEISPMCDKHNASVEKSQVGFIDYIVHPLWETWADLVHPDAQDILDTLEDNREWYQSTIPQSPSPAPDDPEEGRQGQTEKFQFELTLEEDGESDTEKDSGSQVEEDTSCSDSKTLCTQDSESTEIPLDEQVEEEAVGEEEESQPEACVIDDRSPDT

[2] = molecular target: PDE4B (Homo sapiens, UniProt Q07343); test: In-vitro assay for PDE4 enzymes, real-time enzyme-coupled spectrophotometric assay, PDE4B Activity (Table 10); format: biochemical; details: human PDE4B (hPDE4B), enzyme-coupled spectrophotometric assay; read-out: PDE4B Activity, hPDE4B
Chain of PDE4B (Q07343 whole entry): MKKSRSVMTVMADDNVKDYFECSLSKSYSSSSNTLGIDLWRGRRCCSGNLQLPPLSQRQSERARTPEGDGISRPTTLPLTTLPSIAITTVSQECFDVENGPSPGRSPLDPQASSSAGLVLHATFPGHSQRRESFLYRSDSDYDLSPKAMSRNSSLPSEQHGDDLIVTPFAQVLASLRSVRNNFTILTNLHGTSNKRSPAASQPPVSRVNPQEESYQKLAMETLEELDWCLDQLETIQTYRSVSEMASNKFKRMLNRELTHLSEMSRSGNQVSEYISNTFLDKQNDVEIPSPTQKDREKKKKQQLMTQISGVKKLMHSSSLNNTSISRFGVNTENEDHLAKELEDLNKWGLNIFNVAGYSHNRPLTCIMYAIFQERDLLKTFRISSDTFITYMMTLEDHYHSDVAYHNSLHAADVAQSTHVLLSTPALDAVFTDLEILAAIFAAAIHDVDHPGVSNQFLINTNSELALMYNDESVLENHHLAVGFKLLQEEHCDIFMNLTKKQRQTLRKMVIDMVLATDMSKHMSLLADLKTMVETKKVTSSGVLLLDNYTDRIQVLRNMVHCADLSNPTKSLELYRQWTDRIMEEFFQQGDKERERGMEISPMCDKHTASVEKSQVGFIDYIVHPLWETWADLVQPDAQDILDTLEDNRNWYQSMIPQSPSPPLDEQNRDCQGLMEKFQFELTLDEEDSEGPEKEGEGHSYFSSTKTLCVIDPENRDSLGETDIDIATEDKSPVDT

| IC50 [1] | IC50 [2] | Structure (SMILES) |
| --- | --- | --- |
| < 5 µM | 5 to 20 µM | CCNC(=O)Nc1ccc(Oc2ccc(OC)c(-c3cccc(C#N)c3)c2F)cn1 [P-440, 1-[5-(3′-Cyano-2-fluoro-6-methoxy-biphenyl-3-yloxy)-pyridin-2-yl]-3-ethyl-urea] |
| < 5 µM | 5 to 20 µM | COc1ccc(Cc2ccc(NC(=O)CCN3CCCCC3)cc2)cc1-c1cccc([N+](=O)[O-])c1 [P-146] |
| 5 to 20 µM | 5 to 20 µM | COc1cccc(-c2cc(CN3CCCC3=O)ccc2OC)c1 [P-184, 1-(6,3′-Dimethoxy-biphenyl-3-ylmethyl)-pyrrolidin-2-one] |
| < 5 µM | < 5 µM | CC(=O)Nc1ccc(Cc2ccc(OC(F)F)c(-c3cccc(Br)c3)c2F)cc1 [P-313] |
| < 5 µM | < 5 µM | COc1ccc(Oc2ccc(N)nc2)c(F)c1-c1cccc(C#N)c1 [P-439, 5-(3′-Cyano-2-fluoro-6-methoxy-biphenyl-3-yloxy)-pyridin-2-yl-ammonium chloride] |
| 5 to 20 µM | 21 to 40 µM | COc1ccc(Cc2cccnc2Cl)c(O)c1-c1cccc(N)c1 [P-182] |
| < 5 µM | < 5 µM | NC(=O)Nc1ccc(Cc2ccc(OC3CSC3)c(-c3cccc(Cl)c3)c2)cc1 [P-553, {4-[3′-Chloro-6-(thietan-3-yloxy)-biphenyl-3-ylmethyl]-phenyl}-urea] |
| < 5 µM | < 5 µM | COc1ccc(Cc2ccc(C(C)(C)O)nc2)cc1-c1cccc(Cl)c1 [P-605, 2-[5-(3′-chloro-6-methoxy-biphenyl-3-ylmethyl)-pyridin-2-yl]-propan-2-ol HCl salt] |
| < 5 µM | 5 to 20 µM | COc1ccc(Cn2cncc2CO)cc1-c1cccc([N+](=O)[O-])c1 [P-153, [3-(6-Methoxy-3′-nitro-biphenyl-3-ylmethyl)-3H-imidazol-4-yl]-methanol] |
| < 5 µM | < 5 µM | Nc1ccc(Cc2ccc(OC(F)F)c(-c3cccc(Br)c3)c2F)cc1 [P-317] |
| < 5 µM | < 5 µM | COc1ccc(Cc2ccc(O)cc2)cc1-c1cccc([N+](=O)[O-])c1 [P-142] |
| < 5 µM | < 5 µM | COc1ccc(Cc2ccc(CN)cc2)c(F)c1-c1cccc([N+](=O)[O-])c1 [P-148] |
| < 5 µM | < 5 µM | COc1ccc(CN2CCCC2=O)cc1-c1cccc([N+](=O)[O-])c1 [P-029, 1-(6-Methoxy-3′-nitro-biphenyl-3-ylmethyl)-pyrrolidin-2-one] |
| < 5 µM | < 5 µM | COc1ccc(Cc2ccnc(CN)c2)c(F)c1-c1cccc(Cl)c1 [P-437, C-[4-(3′-Chloro-2-fluoro-6-methoxy-biphenyl-3-ylmethyl)-pyridin-2-yl]-methylamine] |
| < 5 µM | < 5 µM | COc1ccc(Cc2ccc(C#N)nc2)cc1-c1cccc(Cl)c1 [P-590, 5-(3′-chloro-6-methoxy-biphenyl-3-ylmethyl)-pyridine-2-carbonitrile] |
| < 5 µM | < 5 µM | COc1ccc(Cc2ccc(-n3cccn3)cc2)c(O)c1-c1cccc([N+](=O)[O-])c1 [P-173, 6-Methoxy-3′-nitro-3-(4-pyrazol-1-yl-benzyl)-biphenyl-2-ol] |
| < 5 µM | 21 to 40 µM | [2H]C(O)(c1ccc(NC(N)=O)cc1)c1ccc(OC)c(-c2cccc(Cl)c2)c1F (stereo not shown) [P-539, {4-[(3′-chloro-2-fluoro-6-methoxy-biphenyl-3-yl)-hydroxy-deutero-methyl]-phenyl}-urea] |
| < 5 µM | < 5 µM | COc1ccc(Cc2cccc(NC(C)=O)c2)c(F)c1-c1cccc(Cl)c1 [P-233] |
| < 5 µM | < 5 µM | COc1ccc(Cc2ccc(NC(N)=O)cc2)cc1-c1cccc(C#N)c1 [P-394, [4-(3′-Cyano-6-methoxy-biphenyl-3-ylmethyl)-phenyl]-urea] |
| < 5 µM | < 5 µM | COc1ccc(Cc2ccc(N(C)C)nc2)c(F)c1-c1cccc(C(C)=O)c1 [P-332, 1-[3′-(6-Dimethylamino-pyridin-3-ylmethyl)-2′-fluoro-6′-methoxy-biphenyl-3-yl]-ethanone] |
| < 5 µM | < 5 µM | COc1ccc(Cn2cnc(CO)c2)cc1-c1cccc([N+](=O)[O-])c1 [P-154, [1-(6-Methoxy-3′-nitro-biphenyl-3-ylmethyl)-1H-imidazol-4-yl]-methanol] |
| < 5 µM | < 5 µM | COc1ccc(Cc2ccc(N3CCNC3=O)nc2)c(F)c1-c1cccc(C(C)=O)c1 [P-361, 1-[5-(3′-Acetyl-2-fluoro-6-methoxy-biphenyl-3-ylmethyl)-pyridin-2-yl]-imidazolidin-2-one] |
| < 5 µM | < 5 µM | COc1ccc(CCn2ccccc2=O)cc1-c1cccc([N+](=O)[O-])c1 [P-244, 1-[2-(6-Methoxy-3′-nitro-biphenyl-3-yl)-ethyl]-1H-pyridin-2-one] |
| < 5 µM | < 5 µM | COc1ccc(Cc2ccc(CNC(C)=O)c(F)c2)c(F)c1-c1cccc(Cl)c1 [P-300] |
| < 5 µM | < 5 µM | NC(=O)Nc1ccc(Cc2ccc(O)c(-c3cccc(Cl)c3)c2)cc1 [P-421, [4-(3′-Chloro-6-hydroxy-biphenyl-3-ylmethyl)-phenyl]-urea] |

| IC50 [1] | IC50 [2] | Structure (SMILES) |
| --- | --- | --- |
| < 5 µM | < 5 µM | COc1ccc(Cc2ccc(N)cc2)c(F)c1-c1cccc(C(C)=O)c1 [P-261, 1-[3′-(4-Amino-benzyl)-2′-fluoro-6′-methoxy-biphenyl-3-yl]-ethanone; hydrochloride] |
| < 5 µM | < 5 µM | COc1ccc(Cc2ccc(OC)c(-c3cccc(Cl)c3)c2F)cn1 [P-225] |
| < 5 µM | < 5 µM | [2H]C([2H])(c1ccc(NC(N)=O)cc1)c1ccc(OC)c(-c2cccc(Cl)c2)c1 [P-547, {4-[Bisduetero-(3′-chloro-6-methoxy-biphenyl-3-yl)-methyl]-phenyl}-urea] |
| < 5 µM | < 5 µM | COc1ccc(CN2CCCCC2=O)cc1-c1cccc([N+](=O)[O-])c1 [P-188, 1-(6-Methoxy-3′-nitro-biphenyl-3-ylmethyl)-piperidin-2-one] |
| 5 to 20 µM | 5 to 20 µM | COc1ccc(CN2CCOC2=O)cc1-c1cccc(C(F)(F)F)c1 [P-083] |
| < 5 µM | < 5 µM | COc1ccc(Cc2ccc(N)nc2)nc1-c1cccc(Cl)c1 [P-379, 5-[6-(3-chloro-phenyl)-5-methoxy-pyridin-2-ylmethyl]-pyridin-2-ylamine] |
| 5 to 20 µM | 5 to 20 µM | COc1ccc(Cn2ccc(N)cc2=O)cc1-c1cccc([N+](=O)[O-])c1 [P-215, 4-Amino-1-(6-methoxy-3′-nitro-biphenyl-3-ylmethyl)-1H-pyridin-2-one] |
| < 5 µM | < 5 µM | O=[N+]([O-])c1cccc(-c2nc(Cc3ccc(F)cc3)ccc2OC(F)F)c1 [P-057] |
| < 5 µM | < 5 µM | [2H]C([2H])([2H])Oc1ccc(Cc2ccc(NC(N)=O)cc2)cc1-c1cccc(Cl)c1 [P-516] |
| < 5 µM | < 5 µM | COc1ccc(Sc2ccc(NC(N)=O)cc2)cc1-c1cccc(Cl)c1 [P-540, [4-(3′-Chloro-6-methoxy-biphenyl-3-ylsulfanyl)-phenyl]-urea] |
| 5 to 20 µM | 21 to 40 µM | Cn1nccc1Cc1ccc(OC(F)F)c(-c2ccc3c(c2)OCO3)c1 [P-201, 5-(3-Benzo[1,3]dioxol-5-yl-4-difluoromethoxy-benzyl)-1-methyl-1H-pyrazole] |
| < 5 µM | < 5 µM | COc1ccc(CN2CCCC2=O)c(O)c1-c1cccc([N+](=O)[O-])c1 [P-229] |
| < 5 µM | < 5 µM | COc1ccc(Cc2ccc(NC(C)=O)cc2)c(F)c1-c1cccc([N+](=O)[O-])c1 [P-107] |
| < 5 µM | < 5 µM | COc1ccc(Cc2ccc(N3CCN(C(N)=O)CC3)nc2)c(F)c1-c1cccc(Cl)c1 [P-432] |
| < 5 µM | < 5 µM | COc1ccc(Cc2ccc(N3CCN(C)C3=O)nc2)c(F)c1-c1cccc(Cl)c1 [P-470, 1-[5-(3′-Chloro-2-fluoro-6-methoxy-biphenyl-3-ylmethyl)-pyridin-2-yl]-3-methyl-imidazolidin-2-one] |
| < 5 µM | < 5 µM | COc1ccc(Cc2ccc(C(N)=O)nc2)c(F)c1-c1cccc(Cl)c1 [P-401, 5-(3′-Chloro-2-fluoro-6-methoxy-biphenyl-3-ylmethyl)-pyridine-2-carboxylic acid amide] |
| < 5 µM | < 5 µM | COc1ccc(Cc2ccc(CO)nc2)cc1-c1cccc(Cl)c1 [P-567, [5-(3′-Chloro-6-methoxy-biphenyl-3-ylmethyl)-pyridin-2-yl]-methanol] |
| < 5 µM | < 5 µM | COc1ccc(Cc2cnc(NC(N)=O)nc2)c(F)c1-c1cccc(C(C)=O)c1 [P-362, [5-(3′-Acetyl-2-fluoro-6-methoxy-biphenyl-3-ylmethyl)-pyrimidin-2-yl]-urea] |
| < 5 µM | < 5 µM | CNc1ccc(Cc2ccc(OC)c(-c3cccc(C(C)=O)c3)c2F)cn1 [P-336] |
| < 5 µM | < 5 µM | COc1ccc(Cc2ccc(NC(=O)CN)cc2)cc1-c1cccc([N+](=O)[O-])c1 [P-145] |
| < 5 µM | 5 to 20 µM | COc1ccc(Cc2ccc(F)cc2)cc1-c1ccc2nonc2c1 [P-004, 5-[5-(4-Fluoro-benzyl)-2-methoxy-phenyl]-benzo[1,2,5]oxadiazole] |
| < 5 µM | 5 to 20 µM | COc1ccc(Cn2cncn2)cc1-c1ccc2nonc2c1 [P-481, 5-(2-Methoxy-5-[1,2,4]triazol-1-ylmethyl-phenyl)-benzo[1,2,5]oxadiazole] |
| < 5 µM | 5 to 20 µM | COc1ccc(Cc2ccc(NS(C)(=O)=O)nc2)c(F)c1-c1cccc(C(C)=O)c1 [P-297] |
| < 5 µM | < 5 µM | COc1ccc(Cc2nnc(NC(N)=O)s2)c(F)c1-c1cccc(Cl)c1 [P-352, [5-(3′-Chloro-2-fluoro-6-methoxy-biphenyl-3-ylmethyl)-[1,3,4]thiadiazol-2-yl]-urea] |
| < 5 µM | < 5 µM | COc1ccc(Cc2ccc(NC(C)=O)cc2)c(F)c1-c1cccc(Br)c1 [P-168] |
